The values that follow come from patent EP0565593B1, “REDUCING PESTICIDAL INTERACTIONS IN CROPS” (priority 1990, dated 1992).

In data set [1] the test system is Shattercane (SHCA). It counts as in vivo.
In data set [2] the test system is Corn. Briefly: Field trials, PPI, PRE and POE herbicide applications with terbufos (Example 7). It counts as in vivo. Conditions: mean of five locations, soil-applied insecticide prior to planting. An excerpt:
This example summarizes the results of one series of field trials from a plurality of locations and soil types wherein test chemicals were applied in various modes including pre-plant incorporated (PPI), post emergence (POE) and preemergence (PRE) with and without a safener (antidote). Test Chemicals were Herbicide Nos 1, 2, 3 and 7-9; Insecticide No. 1 and Antidote No. 1.
In these trials Insecticide No. 1 (terbufos) was T-banded or furrow applied at labeled rates prior to planting corn. PPI herbicide treatments were applied prior to insecticide applications; PRE treatments were applied after the insecticide application either prior to or after seeding the corn. POE herbicide applications were made at 2 corn-growth stages, i.e., early post (EP) at the 2-3 leaf stage and late post (LP) at the 4-7 leaf stage. Plots were small plot with 3 replications in a randomized complete block design. In the PRE and PPI herbicide treatments, Antidote No. 1 was applied as a tankmix in both treatments. In the POE herbicide treatments, that antidote was applied as a tank mix with the herbicide at the EP and LP stages.

Data set [3] relates to Corn.
In data set [4] the test system is Velvetleaf (VELE). It is filed as in vivo, Abutilon theophrasti.
In data set [5] the test system is cotton (COTT). As to the kind of experiment: Multi-crop greenhouse test, COUNTER 15G and safener PPI, herbicide POE (Examples 62-64; Tables 61-63). Details: dose or concentration left out as unconfirmed. Particulars: Gossypium hirsutum, Table 62, Biocide No. 1 8.96 Kg/Ha, antidote 4.48 Kg/Ha PPI where in label. It counts as in vivo. How it is done: (§1) Tests according to this invention in various crops indicate widespread application of the invention. In Examples 62-66 below are described tests with a variety of herbicides contacted with COUNTER® 15G in the presence and absence of MON-7400 (Antidote No. 12); MON-13900 (No. 1); MON-4660 (No. 16) and flurazole (No. 16). Those tests were conducted according to Procedures IV or V described above and illustrated further in other foregoing examples. Plants used in all tests were, for crops (as abbreviated in parentheses); cotton (COTT); soybean (SOBE); CORN, grain sorghum (GRSO); wheat (WHEA) and RICE, and the weeds giant foxtail (GIFT) and velvetleaf (VELE). The data in the tables below represent averages of two replications.
(§2) In this test the crops and weeds were planted 1.3 cm deep in 13.7 cm X 27.7 cm pans containing Dupo silt loam soil. The test safeners were applied in acetone solution and COUNTER 15G as dry granules to soil cover layers and incorporated by shaking in a bag. Treated cover layers were placed on seeded pans which were transferred to greenhouse benches and subirrigated. Herbicide was applied POE six (6) days after PPI initiation and observations of plant injury made ten (10) days later; results are shown in Table 61. The herbicide used in this example was BEACON (No. 8).
(§3) The test procedure described in Example 62 was repeated using ACCENT® (Herbicide No. 7) as the herbicide; the biocide and safeners were the same.

The test system of data set [6] is Corn. As to the kind of experiment: Multi-crop greenhouse test, herbicide POE (Examples 62-64; Tables 61-63). It counts as in vivo. The arrangement: inhibition: dose or concentration left out as unconfirmed. Particulars: Zea mays, Table 62, Biocide No. 1 8.96 Kg/Ha, antidote 4.48 Kg/Ha PPI where in label. How it is done: as §1, §2, §3
The test system of data set [7] is wheat (WHEA). The data set is described as above. It counts as in vivo. Details: dose or concentration left out as unconfirmed. Conditions: Triticum aestivum, Table 62, Biocide No. 1 8.96 Kg/Ha, antidote 4.48 Kg/Ha PPI where in label. How it is done:
as §1, §2, §3

Data set [8] deals with grain sorghum (GRSO). Described as above. It is filed as in vivo. The arrangement: dose or concentration left out as unconfirmed. Particulars: Biocide No. 1 8.96 Kg/Ha, antidote 4.48 Kg/Ha PPI where in label. How it is done:
as §1, §2, §3

The subject of data set [9] is Giant foxtail (GIFT). The data set is described as above. Conditions: Setaria faberi, Table 62, Biocide No. 1 8.96 Kg/Ha, antidote 4.48 Kg/Ha PPI where in label. It counts as in vivo. The arrangement: dose or concentration left out as unconfirmed. As to the method: as §1, §2, §3
Data set [10] has as its system Velvetleaf (VELE). The data set is described as above. It counts as in vivo. Details: dose or concentration left out as unconfirmed. Particulars: Abutilon theophrasti, Table 62, Biocide No. 1 8.96 Kg/Ha, antidote 4.48 Kg/Ha PPI where in label. As to the method: as §1, §2, §3
Data set [11] has as its system soybean (SOBE). Described as above. It counts as in vivo. Details: dose or concentration left out as unconfirmed. Conditions: Glycine max, Table 62, Biocide No. 1 8.96 Kg/Ha, antidote 4.48 Kg/Ha PPI where in label. How it is done:
as §1, §2, §3

Data set [12] concerns RICE. Described as above. It counts as in vivo. Details: dose or concentration left out as unconfirmed. Conditions: Oryza sativa, Table 62, Biocide No. 1 8.96 Kg/Ha, antidote 4.48 Kg/Ha PPI where in label. As to the method:
as §1, §2, §3

The mark [13] stands for this setting: Herbicide No. 7 0.28 Kg/Ha POE alone, 13 days after planting.
The mark [14] stands for this setting: Herbicide No. 7 0.28 POE + Biocide No. 1 8.96 Kg/Ha PPI, 13 days after planting.
Where [15] appears, read: Herbicide No. 7 alone, POE 5 DAP, observed 13 DAP.
Where [16] appears, read: Table 14: no antidote, Herbicide No. 7 0.84 Kg/Ha POE and/or Biocide No. 2 8.96 Kg/Ha PPI, per label, 13 days after planting.
Where [17] appears, read: Table 50, Herbicide No. 7 0.56 Kg/Ha POE, where applied Biocide No. 8 8.96 kg/Ha and antidote 4.48 Kg/Ha PPI, observed 9 days after POE.
Where [18] appears, read: no antidote, […], 13 days after planting.
Setting [19] is: Herb. No. 7 (ACCENT) 0.0044 Kg/Ha POE.
The mark [20] stands for this setting: Herb. No. 7 (ACCENT) 0.035 Kg/Ha POE.
The mark [21] stands for this setting: Herb. No. 7 (ACCENT) 0.28 Kg/Ha POE.

One may read the inhibition as the relative decrease from the control value, in per cent.

The structures appear in SMILES notation. Values joined by “and” are separate entries in the source; they are usually repeats but may differ in a detail not shown here. Identical values can stand only once. Like-named read-outs stand apart in the source and are kept apart here.

With `COc1cc(OC)nc(NC(=O)NS(=O)(=O)c2ncccc2C(=O)N(C)C)n1` [Herbicide No. 7, reference compound], the “% Inhibition SHCA” value in data set [1] (setting [13]) amounted to 70%; in data set [1] (setting [14]), 75%; in data set [1] (setting [15]), 75%; in data set [1] (setting [16]) it was 75%; in data set [1] (setting [17]), 75%; in data set [1] (in vivo), 75%. In addition, in data set [1] (setting [18]), the “% Inhibition SHCA” value is recorded as 75%. Moreover, the “interaction with Insecticide No. 1 after POE herbicide” value in data set [2] is listed as “Significant increased growth reduction”. For the same compound, the “safety to corn” value in [3] (ACCENT alone, no insecticide, 0.28 to 0.84 kg/ha) is “completely safe”. The “% Inhibition Corn” value in data set [3] (setting [13]) was found to be 0%; in data set [3] (setting [14]) it was 60%; in [3] (setting [15]), 0%; in [3] (setting [16]), 0%; in [3] (setting [17]) it was 10%; in data set [3] (setting [18]), 0%. Besides, the “% Inhibition VELE” value is 60% in data set [4] (setting [13]); 65% in data set [4] (setting [14]); 70% in data set [4] (setting [15]); 65% in data set [4] (setting [16]); 80% in [4] (setting [17]); 60% and 75% in data set [4] (in vivo). Further, in [4] (setting [18]), the “% Inhibition VELE” value turned out to be 60%.

Turning to `COc1cc(OC)nc(NC(=O)NS(=O)(=O)c2ncccc2C(=O)N(C)C)n1` [Herb. No. 7], the inhibition in data set [5] (setting [19]) is 25%; in data set [5] (setting [20]), 40%; in data set [5] (setting [21]) it was 50%; in data set [6] (setting [19]), 0%; in data set [6] (setting [20]), 0%; in data set [6] (setting [21]), 0%. Also, the inhibition in [7] (setting [19]) came to 35%; in data set [7] (setting [20]), 45%; in data set [7] (setting [21]), 60%; in data set [8] (Table 62, Herb. No. 7 (ACCENT) 0.0044 Kg/Ha POE) it was 60%; in [8] (Table 62, Herb. No. 7 (ACCENT) 0.035 Kg/Ha POE), 65%; in data set [8] (Table 62, Herb. No. 7 (ACCENT) 0.28 Kg/Ha POE), 75%. Besides, the inhibition in [9] (setting [19]) is 65%; in data set [9] (setting [20]), 70%; in [9] (setting [21]) it was 75%; in data set [10] (setting [19]), 40%; in [10] (setting [20]), 60%; in [10] (setting [21]), 65%. Besides, the inhibition worked out at 10% in [11] (setting [19]); 20% in [11] (setting [20]); 40% in data set [11] (setting [21]); 20% in [12] (setting [19]); 40% in [12] (setting [20]); 50% in data set [12] (setting [21]).
